Experimental data: the supplement of paper PMC10307832

Assays:
Assay in all cases: relative viability (nuclei count vs DMSO), 5 days (fraction); higher = more cells survive
[1] = compound: C1CC1C(=O)NC2=NNC3=C2C=CC(=C3)C4=CC(=CC=C4)C(=O)NC5CC5 [XMD13-2] + C[C@]1(O)C[C@@H](c2nc(-c3ccc4ccc(-c5ccccc5)nc4c3)c3c(N)nccn32)C1 [Linsitinib] (partner 1 µM)
Procedure, shortened: (§1)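 Lung cancer cell lines, seeded in 1536-well plates, were treated the following day by pin tool with a single drug or with five library-drug doses (not always all listed) in √10 steps on top of a fixed anchor-drug dose. Cells were fixed and nuclei stained in one step after 5 days, and nuclei were counted. Relative viability is the nuclei count for treated wells divided by that for vehicle wells, reported as medians of duplicate plates.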

[2] = compound: C1CC1C(=O)NC2=NNC3=C2C=CC(=C3)C4=CC(=CC=C4)C(=O)NC5CC5 [XMD13-2] + O=C(CCCCCCC(=O)Nc1ccccc1)NO [Vorinostat] (partner 1 µM)
Procedure, shortened: as §1

[3] = compound: Cc1nc(Nc2ncc(C(=O)Nc3c(C)cccc3Cl)s2)cc(N2CCN(CCO)CC2)n1 [Dasatinib] + CC1(C)CCC(c2ccc(Cl)cc2)=C(CN2CCN(c3ccc(C(=O)NS(=O)(=O)c4ccc(N[C@H](CCN5CCOCC5)CSc5ccccc5)c(S(=O)(=O)C(F)(F)F)c4)cc3)CC2)C1 [Navitoclax] (partner 0.5 µM)
Procedure, shortened: as §1

[4] = compound: C1CC1C(=O)NC2=NNC3=C2C=CC(=C3)C4=CC(=CC=C4)C(=O)NC5CC5 [XMD13-2] + Cc1cc(Nc2cc(N3CCN(C)CC3)nc(Sc3ccc(NC(=O)C4CC4)cc3)n2)n[nH]1 [Tozasertib] (partner 0.1 µM)
Procedure, shortened: as §1

| Cell Line | relative viability ([1]; first compound 0.05 µM) | relative viability ([1]; first compound 0.1581 µM) | relative viability ([1]; first compound 0.5 µM) | relative viability ([1]; first compound 1.581 µM) | relative viability ([1]; first compound 5 µM) | relative viability ([2]; first compound 0.05 µM) | relative viability ([2]; first compound 0.1581 µM) | relative viability ([2]; first compound 0.5 µM) | relative viability ([2]; first compound 1.581 µM) | relative viability ([2]; first compound 5 µM) | relative viability ([3]; first compound 0.005 µM) | relative viability ([3]; first compound 0.01581 µM) | relative viability ([3]; first compound 0.05 µM) | relative viability ([3]; first compound 0.1581 µM) | relative viability ([3]; first compound 0.5 µM) | relative viability ([4]; first compound 0.05 µM) | relative viability ([4]; first compound 0.1581 µM) | relative viability ([4]; first compound 0.5 µM) | relative viability ([4]; first compound 1.581 µM) | relative viability ([4]; first compound 5 µM) |
| --- | --- | --- | --- | --- | --- | --- | --- | --- | --- | --- | --- | --- | --- | --- | --- | --- | --- | --- | --- | --- |
| NCI-H2087 | 0.922 | 0.991 | 0.869 | 0.811 | 0.784 | 0.686 | 0.902 | 0.729 | 0.898 | 0.853 | 0.997 | 0.873 | 1.07 | 0.972 | 0.532 | 0.264 | 0.239 | 0.268 | 0.223 | 0.207 |
| HCC-366 | 0.809 | 0.54 | 0.749 | 0.647 | 0.736 | 0.439 | 0.291 | 0.386 | 0.379 | 0.399 | 0.561 | 0.601 | 0.39 | 0.569 | 0.217 | 0.0882 | 0.0936 | 0.127 | 0.115 | 0.116 |
| NCI-H2126 | 0.697 | 0.693 | 0.755 | 0.662 | 0.703 | 0.849 | 0.731 | 0.745 | 0.749 | 0.735 | 0.868 | 0.76 | 0.804 | 0.621 | 0.374 | 0.953 | 0.879 | 0.81 | 0.861 | 0.985 |
| SK-LU-1 | 1.1 | 1.19 | 1.45 | 0.929 | 1.14 | 0.874 | 0.831 | 0.959 | 0.719 | 0.74 | 0.812 | 0.57 | 0.301 | 0.226 | 0.154 | 0.335 | 0.338 | 0.432 | 0.309 | 0.323 |
| HCC-78 | 0.696 | 0.587 | 0.603 | 0.548 | 0.461 | 0.481 | 0.489 | 0.454 | 0.445 | 0.413 | 0.619 | 0.58 | 0.688 | 0.601 | 0.247 | 0.362 | 0.436 | 0.372 | 0.346 | 0.282 |
| LCLC-97TM1 | 0.206 | 0.157 | 0.187 | 0.176 | 0.178 | 0.769 | 0.551 | 0.747 | 0.532 | 0.301 | 0.448 | 0.488 | 0.579 | 0.413 | 0.282 | 0.235 | 0.198 | 0.209 | 0.194 | 0.104 |
